Legend:
Type in all cases: in vivo
[1] = system: Echinochloa oryzacola Vasing.; experiment: Test Example 1: herbicidal activity, application before weed generation in submerged conditions (symbol A); details: application herbicide amount 320 g/ha
Outline: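 Pre-emergence, paddy conditions: emulsifiable formulation diluted in water, dosed onto floodwater (4 cm depth) on sowing day. Alluvial soil; weeds sown mixed; rice transplanted at 2.5-leaf stage. Greenhouse 25–30 °C, 3 wk. Score 0–5 (5 = ≥90% kill, 0 = ≤5%).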

Scirpus juncoides = experiment: Test Example 2: herbicidal activity, application during weed generation in submerged conditions (symbol B); details: Table 23; application herbicide amount 320 g/ha; grade 0-5 by criteria of Test Example 1
Outline: (§1)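 Submerged alluvial soil (4 cm) sown with mixed seed; greenhouse 25–30° C. 1–2 leaf: diluted emulsion onto water surface, preset dose. Visual score, 3 wk.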

Monochoria vaginalis = experiment: Test Example 2: herbicidal activity, application during weed generation in submerged conditions (symbol C); details: Table 23; application herbicide amount 320 g/ha; grade 0-5 by criteria of Test Example 1
Outline: as §1

Leptochloa chinensis = experiment: Test Example 3: herbicidal effect by foliage application, Wagner pot (symbol D); details: application herbicide amount 320 g/ha, Table 24
Outline: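 Steps: fill pot with alluvial soil; add water to 0.1–0.5 cm depth; sow weed and rice seed; grow 14 days at 25–30 °C; spray diluted emulsion over the leaves; rate effect after 3 weeks.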

Setaria viridis = experiment: Test Example 4: herbicidal effect by soil treatment (symbol G); details: application herbicide amount 320 g/ha
Outline: (§2)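 Seeds were sown in sterilized diluvial soil, covered with about 1.5 cm of soil, and the soil surface was sprayed with a water-diluted emulsion of the compound at a predetermined rate. Plants grew in a greenhouse at 25° C. to 30° C.; effects were scored visually 3 weeks after application.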

Veronica persica = experiment: Test Example 4: herbicidal effect by soil treatment (symbol R); details: application herbicide amount 320 g/ha
Outline: as §2

beet [2] = experiment: Test Example 4: effect on crop by soil treatment (symbol f); details: application herbicide amount 320 g/ha
Outline: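 Plants grew in a 25° C. to 30° C. greenhouse after spot-sowing of seeds, including beet, rapeseed, wheat and rice, into sterilized diluvial soil under roughly 1.5 cm of cover soil.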

Digitaria ciliaris = experiment: Test Example 5: herbicidal effect by foliage application, plastic box (symbol F); details: 320 g/ha, 3 weeks after application
Outline: (§3)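 Emulsion formulation, diluted with water to the intended rate, was applied uniformly to leaves by small sprayer. Recipients were 14-day greenhouse-grown seedlings (25° C. to 30° C.). Assessment followed at 3 weeks.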

Avena fatua = experiment: Test Example 5: herbicidal effect by foliage application, plastic box (symbol I); details: 320 g/ha, 3 weeks after application
Outline: as §3

Alopecurus myosuroides = experiment: Test Example 5: herbicidal effect by foliage application, plastic box (symbol J); details: 320 g/ha, 3 weeks after application
Outline: as §3

beet [3] = experiment: Test Example 5: effect on crop by foliage application, plastic box (symbol f); details: 320 g/ha, 3 weeks after application
Outline: (§4)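 In a plastic box 7 cm deep filled with sterilized diluvial soil, seeds of crops and weeds such as Digitaria ciliaris, Avena fatua and Amaranthus retroflexus are sown in spots and covered with about 1.5 cm of soil before greenhouse growth at 25–30° C.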

rapeseed = experiment: Test Example 5: effect on crop by foliage application, plastic box (symbol g); details: 320 g/ha, 3 weeks after application
Outline: as §4

## CON=C(CC1CC(O)=C(c2c(C)cc(C#C[Si](C)(C)C)cc2C)C1=O)C(C)C (stereo not drawn) [9-005]
[1]
  Herbicidal effect grade, A: Echinochloa oryzacola Vasing.: 4 (Herbicidal ratio of 70% or higher and lower than 90%)
Scirpus juncoides
  Herbicidal effect grade, B: Scirpus juncoides: 0 (Herbicidal ratio of 5% or lower (almost no effect))
Monochoria vaginalis
  Herbicidal effect grade, C: Monochoria vaginalis: 0 (Herbicidal ratio of 5% or lower (almost no effect))
Leptochloa chinensis
  D (Leptochloa chinensis) herbicidal effect grade: 5 (Herbicidal ratio of 90% or more (almost completely withered))
Setaria viridis
  Herbicidal effect grade, G: Setaria viridis: 0 (Herbicidal ratio of 5% or lower (almost no effect))
Veronica persica
  Herbicidal effect grade, R: Veronica persica: 0 (Herbicidal ratio of 5% or lower (almost no effect))
Beet [2]
  Effect on crop grade, f: beet: 0 (Herbicidal ratio of 5% or lower (almost no effect))
Digitaria ciliaris
  F: Digitaria ciliaris, herbicidal effect grade: 4 (Herbicidal ratio of 70% or higher and lower than 90%)
Avena fatua
  I: Avena fatua, herbicidal effect grade: 5 (Herbicidal ratio of 90% or more (almost completely withered))
Alopecurus myosuroides
  J: Alopecurus myosuroides, herbicidal effect grade: 4 (Herbicidal ratio of 70% or higher and lower than 90%)
Beet [3]
  f: beet, effect on crop grade: 0 (Herbicidal ratio of 5% or lower (almost no effect))
rapeseed
  g: rapeseed, effect on crop grade: 3 (Herbicidal ratio of 40% or higher and lower than 70%)

Source: US11000033B2, “Ketone or oxime compound, and herbicide” (NISSAN CHEMICAL CORPORATION, priority 2014, dated 2021)
